Source: publication PMC2578980 (The Yale Journal of Biology and Medicine, 1998)

Columns and labels:
human CCK-BR [1] = target: T1, human CCK-BR (Homo sapiens, UniProt P32239); experiment: Inositol phosphate accumulation; format: cell-based; details: for effect on inositol phosphate production (intrinsic activity): high concentrations of non-peptide ligands
T1 sequence (P32239 1-447): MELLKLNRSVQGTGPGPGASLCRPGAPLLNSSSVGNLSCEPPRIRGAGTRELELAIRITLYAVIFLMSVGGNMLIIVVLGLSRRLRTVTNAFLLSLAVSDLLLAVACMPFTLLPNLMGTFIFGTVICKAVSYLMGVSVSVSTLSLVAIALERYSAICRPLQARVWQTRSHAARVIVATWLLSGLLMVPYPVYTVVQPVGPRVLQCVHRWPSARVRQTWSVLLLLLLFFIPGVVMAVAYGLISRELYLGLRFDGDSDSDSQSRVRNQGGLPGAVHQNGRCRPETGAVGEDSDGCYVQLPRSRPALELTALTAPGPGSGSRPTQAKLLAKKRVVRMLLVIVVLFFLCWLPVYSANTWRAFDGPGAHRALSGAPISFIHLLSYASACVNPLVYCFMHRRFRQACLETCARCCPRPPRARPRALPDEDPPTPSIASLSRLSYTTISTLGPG

human CCK-BR [2] = target: T1, human CCK-BR; details: human CCK-BR expressed in CHO instead of COS-7 cells; cited from earlier work
gastric acid secretion = details: cited from earlier work
human CCK-BR [3] = target: T1, human CCK-BR

Cc1cccc(NC(=O)N[C@@H]2N=C(c3ccccc3)c3ccccc3N(C)C2=O)c1 [L-365,260]
effect on inositol phosphate production (intrinsic activity) (human CCK-BR [1]): little, if any, effect

CC1(C)[C@H]2CC[C@@]1(C)[C@H](OC(=O)N[C@](C)(Cc1c[nH]c3ccccc13)C(=O)NC[C@H](NC(=O)CCC(=O)O)c1ccccc1)C2 [PD 135,158]
inositol phosphate formation, percent of the CCK-8 induced maximum (human CCK-BR [1]): 23% | functional classification in CHO cells (human CCK-BR [2]): "true" antagonist

C[C@](Cc1c[nH]c2ccccc12)(NC(=O)OC1C2CC3CC(C2)CC1C3)C(=O)NC[C@H](NC(=O)/C=C/C(=O)O)c1ccccc1 (stereo partly shown) [PD 136,450]
intrinsic activity in the rat (gastric acid secretion): no appreciable intrinsic activity | inositol phosphate formation, percent of the CCK-8 induced maximum (human CCK-BR [1]): 43%

Cc1cccc(NC(=O)N[C@@H]2N=C(c3ccccc3)c3ccccc3N(CC(=O)c3ccccc3C)C2=O)c1 [YM022, (R)-1-[2,3-dihydro-1-(2'-methylphenacyl)-2-oxo-5-phenyl-1H-1,4-benzodiazepin-3-yl]-3-(3-methylphenyl)urea]
effect on inositol phosphate production (intrinsic activity) (human CCK-BR [1]): little, if any, effect | blockade of CCK-8 induced inositol phosphate formation (human CCK-BR [3]): completely blocks
